Legend:
[1] = assay type: binding, E. coli; settings: 40:1 mass ratio of PMB/LPS
Experimental: Electrophoresis Assays. The binding capacities of the telodendrimers with LPS and/or BSA were studied and compared with PMB binding using electrophoresis assay. The electrophoresis was carried out in 1.5% agarose gel (tris-borate-EDTA (TBE) buffer) at constant current of 20 mA for 2 h. The gel was imaged by a Bio-Rad Universal Hood II Imager (Bio-Rad Laboratories, Inc.) under SYBR Green modes or photographed under UV illumination.
Electrophoresis assays. The binding capacities of the telodendrimers with LPS and/or bovine serum albumin (BSA) were studied and compared with PMB binding using electrophoresis assay. The electrophoresis was carried out in 1.5% agarose gel (Tris-borate-EDTA (TBE) buffer) at constant current of 20 mA for 2 h. The gel was imaged by a Bio-Rad Universal Hood II Imager (Bio-Rad Laboratories, Inc.) under SYBR Green modes or photographed under UV illumination.

[2] = Fluorescent polarization assay of FITC-LPS complexation; assay type: binding; settings: FITC-LPS 10 μg/mL in PBS
Experimental: Fluorescent polarization assays. The fluorescence polarization (FP) was measured on the Multi-Mode Microplate Reader (Synergy™ 2, Biotek, VT) equipped with dichroic mirror (510 nm) and polarizing filter. The measurements were carried out on black flat bottom 96-well plates (Nunclon™ Surface, Roskilde, Denmark). The FP of LPS-FITC was record at excitation and emission filter of 485/20 nm and 528/20 nm, respectively. The experiments were performed in triplicate.

In the case of Polymyxin B [PMB], the “stability of LPS complex in electrophoresis” value [1] is reported as “unstable and dissociated” and the “fluorescent polarization of FITC-LPS” value [2] is reported as “only slightly increased”.
